Values after ≈ are worked out from the molar mass of the structure shown. Values joined by “and” are separate entries in the source; they are usually repeats but may differ in a detail not shown here. Equal entries are not always repeated. Where two headings read alike, the source gives them in different places.
Experiments:
[1] = system: M.tb isolates from BALB/c mice after four months of treatment; assay: microbe, parasite or virus in culture; format: cell-based; details: Mycobacterium tuberculosis, read-out: minimum inhibitory concentration
[2] = for rifampin area under curve (0–18 h): rifampin 10 mg/kg
M.tb H37Rv = assay: Relapse 3 months after ending treatment, BALB/c mice; format: in vivo
wild type H37Rv = assay: microbe, parasite or virus in culture; format: cell-based; details: Mycobacterium tuberculosis, read-out: minimal inhibitory concentration
[3] = system: bone marrow-derived macrophages (BMDM) from BALB/c and C3HeB/FeJ mice; format: cell-based
[4] = Observation of adverse effects in mice during the study period; format: in vivo; details: tofacitinib 30 mg/kg/day (the higher dose)
[5] = system: JAK tyrosine kinase activity; details: ref Dowty et al., 2014; cited from earlier work
[6] = human, recommended doses; ref Dowty et al., 2014; cited from earlier work

Row | SMILES | MIC [1] [µg/mL] | rifampin area under curve (0–18 h) ([2]; mouse serum, co-administered tofacitinib 15 mg/kg) [μg/ml·H] | rifampin area under curve (0–18 h) ([2]; mouse serum, co-administered tofacitinib 22.5 mg/kg) [μg/ml·H] | rifampin area under curve (0–18 h) ([2]; mouse serum, co-administered tofacitinib 30 mg/kg) [μg/ml·H] | relapse rate, Std-Rx plus tofacitinib versus Std-Rx alone (M.tb H37Rv) | MIC (wild type H37Rv) [µg/mL] | effect on cytokine levels (TNF-α, IL-1β) of BMDMs [3] | adverse effects in mice [4] | peak tofacitinib serum concentration in mice during PK experiments ([2]; as stated in section 3.3) [µg/mL] | effect of tofacitinib co-administration on the serum concentration of rifampin ([2]; mice, tofacitinib 15, 22.5, 30 mg/kg/day with rifampin 10 mg/kg) | concentration of tofacitinib 2 h after the dose ([2]; mouse serum, with or without co-administration of rifampin, all doses tested) [ng/mL] | average exposure in mice relative to patients with rheumatoid arthritis on 10 mg per day ([2]; tofacitinib 30 mg/kg/day in two divided doses) | concentration of tofacitinib required to inhibit JAK tyrosine kinase activity [5] | elimination half-life [6]
1 | NNC(=O)c1ccncc1 [isoniazid] | 0.04 (≈ 0.292 µM) |  |  |  |  |  |  |  |  |  |  |  |  | 
2 | CO[C@H]1/C=C/O[C@@]2(C)Oc3c(C)c(O)c4c(O)c(c(/C=N/N5CCN(C)CC5)c(O)c4c3C2=O)NC(=O)/C(C)=C\C=C\[C@H](C)[C@H](O)[C@@H](C)[C@@H](O)[C@@H](C)[C@H](OC(C)=O)[C@@H]1C [rifampin] | 0.25 (≈ 0.304 µM) | 77 | 93 | 103 |  |  |  |  |  |  |  |  |  | 
3 | C[C@@H]1CCN(C(=O)CC#N)C[C@@H]1N(C)c1ncnc2[nH]ccc12 [tofacitinib] |  |  |  |  | did not differ | > 64 | did not alter the cytokine levels | did not observe any adverse effects | 3 | no effect | 250 to 500 | at least three to five | 100 nM and 31.2 ng/mL | ~ 3 h

Reference: publication PMC4563140 (EBioMedicine, 2015)
